{"source": "patent US12076342B2", "about": "“Method for generating progenitor t cells from stem and/or progenitor cells and use of same” (THE GOVERNING COUNCIL OF THE UNIVERSITY OF TORONTO, priority 2016, dated 2024)", "molecules": {"B1": {"name": "DL1: Delta-like-1 (DL1), alternate Notch-1 ligand (protein, UniProt O00548 18-723, looked up)", "Delta-like protein 1": "QVWSSGVFELKLQEFVNKKGLLGNRNCCRGGAGPPPCACRTFFRVCLKHYQASVSPEPPCTYGSAVTPVLGVDSFSLPDGGGADSAFSNPIRFPFGFTWPGTFSLIIEALHTDSPDDLATENPERLISRLATQRHLTVGEEWSQDLHSSGRTDLKYSYRFVCDEHYYGEGCSVFCRPRDDAFGHFTCGERGEKVCNPGWKGPYCTEPICLPGCDEQHGFCDKPGECKCRVGWQGRYCDECIRYPGCLHGTCQQPWQCNCQEGWGGLFCNQDLNYCTHHKPCKNGATCTNTGQGSYTCSCRPGYTGATCELGIDECDPSPCKNGGSCTDLENSYSCTCPPGFYGKICELSAMTCADGPCFNGGRCSDSPDGGYSCRCPVGYSGFNCEKKIDYCSSSPCSNGAKCVDLGDAYLCRCQAGFSGRHCDDNVDDCASSPCANGGTCRDGVNDFSCTCPPGYTGRNCSAPVSRCEHAPCHNGATCHERGHRYVCECARGYGGPNCQFLLPELPPGPAVVDLTEKLEGQGGPFPWVAVCAGVILVLMLLLGCAAVVVCVRLRLQKHRPPADPCRGETETMNNLANCQREKDISVSIIGATQIKNTNKKADFHGDHSADKNGFKARYPAVDYNLVQDLKGDDTAVRDAHSKRDTKCQPQGSSGEEKGTPTTLRGGEASERKRPDSGCSTSKDTKYQSVYVISEEKDECVIATEV"}, "B2": {"name": "IL-7: Interleukin-7 cytokine (R&D Systems) (protein, UniProt P13232 26-177, looked up)", "Interleukin-7": "DCDIEGKDGKQYESVLMVSIDQLLDSMKEIGSNCLNNEFNFFKRHICDANKEGMFLFRAARKLRQFLKMNSTGDFDLHLLKVSEGTTILLNCTGQVKGRKPAALGEAQPTKSLEENKSLKEQKKLNDLCFLKRLLQEIKTCWNKILMGTKEH"}}, "key": {"[1]": {"system": "CD34+ HSPCs derived from cord blood", "assay": "Fed-batch bioreactor expansion culture of human CD34+ HSPCs", "assay_type": "cell-based", "conditions": "500 nM, 12 days of expansion, compared to control FB cultures", "method": "Umbilical cord blood samples were collected from consenting donors according to ethically approved procedures at Mt. Sinai Hospital (Toronto, ON, Canada). Cells were red blood cell (RBC) depleted as previously described^10, using HetaSep (StemCell Technologies). CD34+ progenitor cells were selected with the EasySep system using a human CD34+ enrichment kit (StemCell Technologies), according to the manufacturer's protocol. Freshly isolated CD34+ cells were seeded at a density of 1×10^5 total cells/mL. Cells were seeded in StemSpan-ACF medium (StemCell Technologies), supplemented with 100 ng/mL Stem Cell Factor (SCF, R&D Systems or CellGenix), 100 ng/mL FMS-like Trysine Kinase 3 Ligand (Flt3L, R&D Systems or CellGenix), 50 ng/mL Thrombopoietin (TPO, R&D Systems or CellGenix), 2 mM GlutaMAX (GIBCO) and/or 500 nM UM729 small molecule. Cells were cultured for 12 days with minimal manual manipulation during the culture period, as previously described^11.\nCells were harvested from either fed-batch or fed-batch+UM729 at day 12 and sorted for CD34+ and CD34− populations. Sorted CD34+ and CD34− cells from both culture methods were seeded along with thawed unexpanded day 0 CD34+ HSPCs at 4000 cells/96-well coated overnight with 20 μg/mL DL4 and 2.3 μg/mL VCAM-1 in serum-free IMDM+BIT medium containing 100 ng/mL SCF, Tpo, Flt3L and IL-7. […]"}, "[2]": {"system": "human umbilical cord blood-derived CD34+ HSPCs", "assay": "Human CD34+ HSPC progenitor T cell differentiation on coated plates", "assay_type": "cell-based", "conditions": "serum-free IMDM+BIT, 9 or 14 days; matrix proteins in conjunction with DL4", "method": "For human HSPC culture, umbilical cord blood samples were collected from consenting donors according to ethically approved procedures at Mount Sinai Hospital. CD34+ cells were isolated from the red blood cell (RBC)-lysed cord blood fraction using the EasySep™ Human CD34 Positive Selection Kit (Stemcell Technologies) according to the manufacturer's instructions. Flow cytometry was performed after every enrichment to ensure CD34 frequencies were greater than 95%. CD34+ HSPCs were cultured for 14 days on DL4 and VCAM-1 coated 96-well plates at higher seeding densities of 12,500 HSPCs/cm^2 (corresponding to 4000 cells/well). One complete medium exchange was performed at day 7 of culture and cells were returned to the same DL4 and VCAM-1 coated plates. For certain experiments, DL4-Fc was coated alone or with RetroNectin® (Takara Shuzo) or fibronectin (Sigma Aldrich) as described in the text. CD34+ cells were cultured in serum-free Iscove modified Dulbecco medium (Gibco) with 20% bovine serum albumin, insulin, and transferrin serum substitute (BIT; Stemcell Technologies), 1% GlutaMAX™ (Gibco) and 1 μg/mL low-density lipoproteins (Calbiochem). The medium was added at 50 μL/well supplemented with 100 ng/mL SCF (R&D Systems, Minneapolis, MN), 100 ng/mL Flt3L (R&D Systems), 100 ng/mL Tpo (R&D Systems) and 100 ng/mL IL-7 (R&D Systems).\nSurface marker staining was performed with conjugated rat anti-mouse antibodies (BD Biosciences, San Jose, CA, Table 1). All samples were analyzed on a FACSCanto™ or FACS LSRFortessa™ flow cytometer (BD Biosciences). At day 7 of culture, cells were lifted off the plate with multiple HF rinses, stained at 1:400 dilution with antibodies against CD45, CD25, CD44, CD90, CD11 b and CD19 for 20 minutes on ice. […] Integrin expression was analyzed using antibodies against α4, β1, and β7 integrin subunits on Sca-1+cKit+ mouse HSPCs and CD34+ human umbilical blood cells. […] Flow data was analyzed and batch processed using FlowJo® software and further analyzed in Python (version 2.7.10)."}, "[3]": {"system": "sorted sca1+ckit+ fetal-liver HSPCs", "assay": "Defined T cell differentiation assay on adsorbed ligand, flow cytometry", "assay_type": "cell-based, mouse", "method": "FIG. 2a: Schematic for 2D coated DL4 assay, in which sorted E13.5 sca1+ckit+ fetal-liver HSPCs are seeded on coated DL4 ligand in standard 96-well flat bottom plates at 1000 cells/well density in 200 μl test media containing cytokines 25 ng/mL SCF, 5 ng/mL Flt3L and 1 ng/mL IL7; cells are re-fed on day 4 with fresh media containing cytokines; on day 7, cells are assayed for surface marker expression using flow cytometry.\nCommercially available DL4-Fc was purchased and used for experiments from Sino Biologicals (Cedarlane Labs, Burlington, Ontario, Canada) or manufactured in-house as described below. DL4-Fc was diluted in chilled phosphate-buffered saline (PBS) at 10 μg/mL or […] and 50 μL/well was coated in standard tissue-culture 96-well plates overnight at 4° C. Wells were washed once with PBS prior to seeding cells to remove any unbound ligand from the wells. For certain experiments, wells were also coated overnight with 50 μL/well PBS containing DL4-Fc and VCAM-1-Fc (R&D) or fibronectin (Sigma) at concentrations described herein.\nSorted sca1+ckit+ HSPCs were cultured at 1000 cells/well (corresponding to 3.1×10^3 cells/cm^2) in DL4-coated 96-well plates in serum-free Iscove modified Dulbecco medium (Gibco, Rockville, MD) with 20% bovine serum albumin, insulin, and transferrin serum substitute (BIT; Stemcell Technologies), 1% GlutaMAX™ (Gibco) and 1 μg/mL low-density lipoproteins (Calbiochem, La Jolla, CA) [IMDM+BIT]. For positive control cultures, OP9 serum medium was used, composed of αMEM medium (Gibco) and 16% FBS (Hyclone™, GE Health). Serum-free αMEM+BIT medium was prepared exactly as IMDM+BIT medium except using αMEM (Gibco) as the base medium. OP9 serum medium, αMEM+BIT or IMDM+BIT serum free medium was added at 200 μL/well supplemented with 25 ng/mL Stem Cell Factor (SCF; R&D Systems, Minneapolis, MN), 5 ng/mL FMS-like Tyrosine Kinase 3 Ligand (Flt3L; R&D Systems) and 1 ng/mL Interleukin-7 (IL-7; R&D Systems) with a 50% medium exchange step at day 4 containing 2-fold concentrated cytokines as described previously^9. Design of Experiment (DOE) in silico modeling was performed using Design-Expert® (v10) using response surface method to investigate the combinatorial desirability of different concentrations of SCF, Flt3L and IL-7 for maximizing DN3 T-cell yield and minimizing the volume of IMDM+BIT medium. After DOE optimization, IMDM+BIT serum-free medium was added at 50 μL/well supplemented with 50 ng/mL SCF (R&D Systems), 10 ng/mL Flt3L (R&D Systems) and 10 ng/mL IL-7 (R&D Systems) unless described otherwise in the text with no medium exchange for the length of the assay. For the candidate factor screening in serum-free IMDM+BIT medium, the following proteins or small molecules were used at the concentrations listed: JAK inhibitor I (50 nM; EMD Millipore), IL-11 (10, 50, and 100 ng/mL; R&D Systems), IL-6 (10, 50, and 100 ng/mL; R&D Systems), IL-6R (100 ng/mL; R&D Systems), Ccl25 (1.5 μg/mL; R&D Systems), IL-7 (50, 100, and 200 ng/mL; R&D Systems), SDF1α (Cxcl12; 200 ng/mL; R&D Systems), and Leukemia Inhibitory Factor (LIF; 0.1, 1, and 10 ng/mL; EMD Millipore).\nSurface marker staining was performed with conjugated rat anti-mouse antibodies (BD Biosciences, San Jose, CA, Table 1). All samples were analyzed on a FACSCanto™ or FACS LSRFortessa™ flow cytometer (BD Biosciences). At day 7 of culture, cells were lifted off the plate with multiple HF rinses, stained at 1:400 dilution with antibodies against CD45, CD25, CD44, CD90, CD11 b and CD19 for 20 minutes on ice. Human progenitor T-cells were stained at 1:100 dilution with antibodies against CD34, CD7, CD5 and CD45RA. Integrin expression was analyzed using antibodies against α4, β1, and β7 integrin subunits on Sca-1+cKit+ mouse HSPCs and CD34+ human umbilical blood cells. […]"}, "[4]": {"system": "Notch pathway (CBF1-Firefly)", "assay": "NIH3T3 luciferase assay for measuring Notch activation", "assay_type": "cell-based", "method": "NIH3T3 cells were seeded at 125,000 cells/well in a 6-well plate on the previous day and transiently transfected overnight with Notch1, CBF1-Firefly and constitutively active Renilla plasmids using FuGENE® HD transfection reagent (Promega Corporation, Madison WI USA) as per the manufacturer's instructions. Transfected NIH3T3 cells were either seeded on DL4-coated plates or in DL4-conjugated MC for 24 hours prior to measuring Firefly activation normalized to Renilla expression using the dual-luciferase reporter assay system (Promega Corporation, Madison WI USA) according to the manufacturer's instructions."}}, "data": [{"molecule": "COC(=O)c1ccc2c(c1)[nH]c1ncnc(NCCCN3CCCCC3)c12", "note": "[UM-729]", "values": [{"measurement": "CD34− yield", "setting": "[1]", "value": "minimized CD34− yield"}, {"measurement": "overall CD34+ yield", "setting": "[1]", "value": "enhanced overall CD34+ yield"}]}, {"molecule": "fibronectin [reference compound]", "values": [{"measurement": "generation of later stage progenitor T cells from CD34+ HSPCs", "setting": "[2]", "value": "incapable of differentiating CD7+CD34+ progenitors further along the T cell lineage"}]}, {"molecule": "soluble DL4: DL4 ligand supplied in soluble rather than adsorbed form", "values": [{"measurement": "DN3 cell generation in soluble ligand", "setting": "[3]; 10 μg/mL soluble DL4, day 7", "value": "no DN3 cells were generated"}, {"measurement": "effect of soluble ligand on induction by adsorbed DL4", "setting": "[3]; mixture of adsorbed and soluble DL4, day 7", "value": "completely inhibited the inductive effects of adsorbed DL4 ligand"}, {"measurement": "Notch1 intracellular domain translocation (CBF1-luciferase)", "setting": "[4]; soluble DL4 added, cells on immobilized DL4", "value": "actively inhibits translocation of the intracellular domain of Notch1 receptor"}]}, {"molecule": "B1", "values": [{"measurement": "generation of DN2/DN3 progenitor T cells on adsorbed ligand", "setting": "[3]; same range of coating concentrations as DL4, day 7", "value": "incapable of generating DN2 or DN3 progenitor T cells"}, {"measurement": "Notch pathway activation (CBF-1 Firefly normalized to Renilla)", "setting": "[4]; 24 hours, DL1-Fc at 10 and 20 μg/mL", "value": "unable to sustain progenitor T cell production or activate the Notch pathway at similar coating concentrations as DL4 ligand"}]}, {"molecule": "B2", "values": [{"measurement": "DN3 yield with raised IL-7 concentration", "setting": "[3]; IL-7 from 2 to 10 ng/mL, 50-10-10 no-feed condition vs 25-5-1 re-feed control", "value": "significantly higher yields of T lineage-committed DN3 cells than the control"}]}]}
